Test results published in a melting point compilation (Tetko et al.; mined from patent text by program, amines drawn as free bases though some values may be those of a salt).

| SMILES | melting point [°C] |
| --- | --- |
| CCCCCCCCCCCCCCCCCC(=O)OCCOc1ccc(C2C(=O)Oc3c2cc(C(C)(C)C)cc3C(C)(C)C)cc1 (configuration not stated) | 54 to 60 |
| CCOC(=O)c1cc(OC)c2c(OC(C)C)ccc(Br)c2c1 | 62 |
| N#Cc1ccccc1Cn1nnc2cc3c(cc2c1=O)OC1CCCN1C3=O (configuration not stated) | 257 to 260 |
| CC1(COc2ccc(CP(=O)(O)O)cc2)CCCCC1 | 170 to 172 |
| OC1(c2ccc(Cl)c(C(F)(F)F)c2)CCN(CCCc2nnc3n2CCCCC3)CC1 | 151 |
| CC(C)(C)NC(=O)N1CCN(c2ccc3ncc(Br)n3n2)CC1 | 199 to 200 |
| CCCCCCCCCCOc1ccc(C(=NO)c2cccc(C(=O)O)c2)cc1CCC(=O)O | 163 to 165 |
| O=C(CNC(=O)c1ccc(N2CCN(C(=O)c3ccccc3C(F)(F)F)CC2)nn1)c1ccccc1 | 196 to 198 |
| CN1CCN(CCCNC(=O)CN2CCCC2=O)CC1 | 93 |
| CC(=O)NC[C@H]1CN(c2ccc(C3CCN(C(=O)c4ccno4)CC3)c(F)c2)C(=O)O1 | 290 to 292 |
| OC[C@H]1C2CCC(C2)[C@@H]1CO | 58 |
| CC(=S)O/C=C\n1nnnc1C | 135 to 137 |
| COc1ccc2ccc(N3C(=O)C4=C(SCCO4)C3=O)nc2n1 | 255 |
| CC(=O)Nc1c(C)ccc(N)c1C | 195 to 197 |
| CSc1ccc(C(=O)CC(=O)C2CC2)c2c1OC(F)(F)O2 | 46 to 47 |
| Cc1cc(=O)[nH]nc1-c1ccccc1 | 125 to 126 |
| CN(CC(O)CO)C(=O)c1c(I)c(C#N)c(I)c(C(=O)NCC(O)CO)c1I (configuration not stated) | 215 |
| CCCc1cc2cc(NC(=O)OCC)ccc2o1 | 69 to 70 |
| CCCCc1nc2c(N)nc3cccnc3c2n1CC(C)C | 115 to 116 |
| Cc1c(SCCN2CCOCC2)ccnc1CSc1nc2ccccc2n1CCO | 141 to 143 |
| COC(c1ccc(Cl)c2nc3n(c12)CCCN3c1ccc(Cl)cc1Cl)(C1CC1)C1CC1 | 99 to 100 |
| Cc1cccc(SCn2cc(Br)cnc2=O)c1 | 164 |
| CCCCSc1cc(C(=O)O)cc(S(N)(=O)=O)c1Cl | 202 to 203 |
| CN1c2ccccc2Sc2cc(C=Cc3ccc(-c4ccc(C=Cc5ccc6c(c5)Sc5ccccc5N6C)cc4)cc3)ccc21 | 380 |
| COCCCn1c(C(=O)O)cc2c3c(c(-c4ccccc4Cl)cc21)C(=O)NC3=O | 272 to 274 |
| Cc1nc2c(O)cc(C(=O)N(C)C)cc2n1C | 248 |
| CNC(=O)C1(C)NCCc2c1n(F)c1ccccc21 (configuration not stated) | 238 |

| SMILES | melting point [°C] |
| --- | --- |
| COc1ccc2[nH]cc(C3CCC4(CC3)OCCO4)c2c1 | 153 to 155 |
| Nc1ccc(S(=O)(=O)CCO)cc1C(=O)O | 164 to 167 |
| Cc1cccc(NC(=O)OCC2CCCCN2C)c1 (configuration not stated) | 73.5 to 75.5 |
| Cc1cncc(-c2ccc3c(=O)c(C(=O)O)cn(C4CC4)c3c2C)c1 | 232 |
| CCCN1CCOc2cccc3nc4c(c1c23)CCCC4 | 74.5 to 75.5 |
| O=S1(=O)c2ccccc2N(c2ccc(-c3nc4ccccc4n3-c3ccccc3)cc2)c2ccccc21 | 286 to 288 |
| COC(=O)[C@@H]1CCCCCOc2ccc(cc2)C[C@H](NC(=O)OCc2ccccc2)C(=O)N[C@@H](CC(C)C)C(=O)N1 | 91 to 93 |
| CN1C(=O)C(c2cccc(-c3ccccc3)c2)(C2CCN(C(=O)c3cccs3)CC2)N=C1N (configuration not stated) | 135 to 137 |
| CC(C)C[C@H](NC(=O)OCC1c2ccccc2-c2ccccc21)C(=O)N[C@H]1CCOC1OCc1ccccc1 (some centres not stated) | 116 to 117 |
| Cc1nc(N)c2c(=O)n(C)c(=O)n(C)c2n1 | 267 |
| COC(=O)c1nc(Cl)c(Cl)c(Cl)c1I | 61 to 62 |
| NC(=NO)c1ncn2c1nc(N1CCOCC1)c1ccccc12 | 212 to 213 |
| C=CCOc1cc(COC2CCCCO2)ccc1OCCI (configuration not stated) | 103 to 104 |
| COC(=O)C1=C(C)NC(C)=C(C(=O)OCCN2C(=O)c3ccccc3C2=O)C1c1cccc(C)c1 (configuration not stated) | 188 to 190 |
| CCCCCCCCCCCCCCCCSCC1(CS(=O)(=O)CCCI)CCCO1 (configuration not stated) | 36 to 37 |
| CCc1nnc2c(N(CC)CC)nc3ccccc3n12 | 98 to 100 |
| CC(C)c1c(Sc2ccccc2)n(CC2=CCC(CO)C2)c(=O)[nH]c1=O (configuration not stated) | 166 to 168 |
| COc1ccc(C2(CCCCl)S(=O)(=O)CCCS2(=O)=O)cc1OC | 183 to 184 |
| CC1CN(Cc2ccc(Cl)nc2)C(=C[N+](=O)[O-])N1 (configuration not stated) | 170 to 174 |
| Cc1ccccc1NC(=O)Nc1ccc(NC(=O)C(CC(=O)Nc2ccc(C(=O)O)cc2)c2ccccc2)cc1 (configuration not stated) | 169 |
| COc1ccc2nc(-n3nc4c(c3O)-c3ccccc3CC4)sc2c1 | 204 to 205 |
| Fc1cc(Cc2cccs2)c(Cl)cc1Cl | 60 to 61 |
| CCOCOc1cc(C)ccc1-c1cc(-c2cccc([N+](=O)[O-])c2)c(C#N)c(N)n1 | 148 to 149 |
| N#CCC(C(=O)N1C(=O)OCC1c1ccccc1)c1ccccc1F (configuration not stated) | 179 to 181 |
| O=C(Nc1ccc2c(c1)nc1n2CCCC1)c1cc2cccnc2n1Cc1ccccc1 | 233 to 235 |
| CCOC(=O)N1CCC(Nc2nc3ccccc3n2Cc2ccoc2C)CC1 | 150 |
| O=C1Nc2cccnc2N(CCCCCCN2CCCCC2)c2ccccc21 | 131 to 132 |

Now from value to compound:

| melting point [°C] | SMILES |
| --- | --- |
| 94.6 to 98.8 | Cc1ccc(C)n1S(=O)(=O)c1ccc(CC(=O)c2ccccc2)cc1 |
| 115 to 116 | CCCCNc1ccc(S(=O)(=O)N2CC(N(Cc3ccccc3)C(=O)OC(C)(C)C)C2)cc1 |
| 180 to 182 | Cc1noc(-c2cc3c(OC[C@@H](O)CN4CCC(c5ccc6ccccc6c5)CC4)cccc3s2)n1 |
| 255 to 258 | Cc1nc(N)nc(N)c1N1CCN(c2ccc(C(F)(F)F)cc2)CC1 |
| 229 to 230 | O=C(CSc1cccc(Br)c1)c1ccc2[nH]c3ncc(Cl)cc3c2c1 |
| 142 to 144 | OCC(COc1noc2ccc(Cl)cc12)NC(c1ccccc1)(c1ccccc1)c1ccccc1 (configuration not stated) |
| 99 to 101 | COCn1cnc(-c2ccc(OC)cc2)c1-c1ccc(OC)cc1 |
| 176 to 178 | COc1ccc(NC(=S)N2CCn3c(c(C(N)=O)c(Cl)c3-c3ccccc3)C2)cc1 |
| 153 to 157 | O=C(O)Cc1onc(-c2ccccc2)c1-c1ccccc1 |
| 249 to 250 | CC(=O)Nc1ccc(-c2cc(=O)c(C(=O)O)cn2-c2ccc(F)cc2)cc1 |
| 238 | O=C(Nc1cccc(S(=O)(=O)NCCc2ccncc2)c1)c1cnn2c(C(F)F)cc(-c3ccc(C(F)(F)F)cc3)nc12 |
| 199 to 200 | CC(=O)c1ccc(NC(=O)c2cc(Cl)cc(Cl)c2)cc1 |
| 209 to 210 | CS(=O)(=O)c1ccc(Oc2cc(OCc3ccccc3)c3[nH]c(C#N)cc3c2)cc1 |
| 184 to 186 | CCOC(=O)COc1cc(O)ccc1C(=O)c1ccc(OCc2nc(-c3ccccc3)oc2C)cc1 |
| 116 to 117 | Cc1ccnc2c1C(=O)CC(c1cc(Cl)ccc1Cl)C2 (configuration not stated) |
| 127 to 128 | Cc1c(Cl)cccc1S(=O)(=O)n1c(CCCC(=O)O)cc2nc(Cl)ccc21 |
| 144 to 146 | COc1ccc(CN2CC=C(/C=C/c3ccccc3)CC2)cc1 |
| 230 to 234 | NC(=O)c1ncn2c(-c3cc(Cl)ccc3Cl)ccnc12 |
| 99 to 100 | CCCCNC(=O)N1CCC(c2nc(-c3ccc(-c4ccccc4)cc3)c[nH]2)CC1 |
| 114 to 117 | CC(C)COC(=O)N1CCC(c2ccc(COc3ccc(S(C)(=O)=O)cc3)nc2)CC1 |
| 144 to 146 | O=S(=O)(Nc1ccc(Cl)cc1)c1ccc(Cl)cc1 |
| 235 to 238 | COc1ccc(/C(=C\C=C\C(=O)O)c2cccnc2)cc1 |

| melting point [°C] | SMILES |
| --- | --- |
| 154 to 156 | CC(NC(=O)C=Cc1ccc(C(C)(C)C)cc1)c1ccc(NS(C)(=O)=O)c(F)c1 (configuration not stated) |
| 61.5 to 61.8 | CN(C)c1ccc(C(=O)CC(=O)C(C)(C)C)cc1 |
| 185 to 190 | CN1C(=O)CC[C@]2(C)c3ccc(-c4ccc5ncccc5c4)cc3CC[C@@H]12 |
| 225 to 227 | O=C(O)CNC(=O)c1nc2ccc(Oc3ccccc3)cc2cc1O |
| 49 to 50.5 | Clc1ccc(OCc2ccccc2)c(Br)c1 |
| 316 to 318 | O=c1[nH]c2ccc(Cl)cc2c2cc(CO)nn12 |
| 112 to 114 | CC(C)(C)C(=O)Oc1ccc(CCNC(=O)c2cccnc2)cc1OC(=O)C(C)(C)C |
| 129 to 130 | Nc1nc(-c2ccc(Cl)cc2)cc(C2CCN(C(=O)c3ccccc3)CC2)n1 |
| 146 to 147 | CN(C(CCN1C(=O)CNC1=O)C(=O)NO)S(=O)(=O)c1ccc(Oc2ccccc2)cc1 (configuration not stated) |
| 85 | COc1ccccc1C(CSc1ccccc1N)C(=O)O (configuration not stated) |
| 185 to 189 | CC(c1oc2ccccc2c(=O)c1-c1cccc(F)c1)n1nc(-c2ccccc2CO)c2c(N)ncnc21 (configuration not stated) |
| 118 to 119 | N#CC(Cc1ccccn1)(c1ccc(F)cc1)c1ccc([N+](=O)[O-])c(C(F)(F)F)c1 (configuration not stated) |
| 247 to 248 | COc1cccc2c1C(=O)N(CC(=O)N1c3ccccc3N(Cc3ccccc3)C(=O)[C@H]3CCC[C@H]31)C2=O (relative stereo) |
| 87 to 88 | CCOc1cc(OCC)nc(-c2ccc(C=O)cc2)n1 |
| 105 to 110 | COc1ccc(C)cc1NC(=O)Nc1ccc(C2CCN(C(=O)Nc3ncccc3CO)CC2)cc1 |
| 121 to 123 | CCOC(=O)c1cnc(C)nc1NCc1ccc(-c2ccccc2-c2nnn[nH]2)cc1 |
| 120 to 122 | CC(=O)Oc1ccc(C(=O)c2ccc(OC(C)=O)cc2)cc1 |
| 246 to 248 | Nc1n[nH]c2cc(CN3CCN(Cc4cc5ccc(Cl)cc5s4)CC3=O)ccc12 |
| 181 to 183 | CCN(C(=O)c1ccccc1)[C@@H](Cc1c[nH]c2ccccc12)C(=O)OC(=O)c1ccc(N)cc1 |
| 95 to 110 | CC(C)(C)c1ccc(C(O)(c2ccc(Cl)cc2)c2ncc[nH]2)cc1 (configuration not stated) |
| 177 to 179 | COc1ccccc1Oc1c(Cl)nc(-c2ccncc2)nc1NS(=O)(=O)c1ccc(C)cn1 |
